According to US6518295B1, “Utilization of aryl(or heteroaryl)azolylcarbinol derivatives in the preparation of a medicament for the treatment of troubles mediated by an excess of substance P” (Laboratorios del Dr. Esteve, S.A., priority 1998, dated 2003):
Where two headings read alike, the source gives them in different places.

Columns and labels:
Format in all cases: in vivo
[1] = test system: intrathecal release of substance P; assay: Effect on the spinal release of substance P in rats (intrathecal perfusion)
Experimental: Effect on the Spinal Release of Substance P in Rats:
The study was carried out in vivo, in rats anaesthetised with halothane. The trial consisted of intrathecal perfusion with an artificial cerebrospinal fluid, with a view to collecting the peptides released from the superficial layers of the spinal cord while the product under study is administered locally or systematically. The method used was that described by Collin, E. and co-workers (Naunyn-Schmiedeberg's Arch. Pharmacol., 1994, 349, 387-393).
The activity of the (±)-5-{α-[2-(dimethylamino)ethoxy] benzyl}-1-methyl-1H-pyrazol citrate (example 191) was studied, administered intrathecally in the perfusion liquid, at a concentration of 1 μM.
It is of note that the effect of the systematic administration of product on the intrathecal release of substance P lasted 2 hours, the average inhibition being 50% of the effect during this period.

[2] = test system: ptosis induced by reserpine; assay: Inhibition of ptosis induced by reserpine in mice
Experimental: (§1) In one the inhibition of ptosis induced by reserpine was studied, and in the other the effect on mobility in adverse situation was investigated.
2.1 Inhibition of Ptosis Induced by Reserpine in Mice:
The method used was that described by S.Garattini and co-workers (Med. Exp., 1960, 3, 315-320). The trial consists of observing the possible inhibition of ptosis induced by reserpine ([…], ip: intraperitoneal) in mice, after the products under study had been administered orally.
The activity of the (±)-5-{α-[2-(dimethylamino)ethoxy] benzyl}-1-methyl-1H-pyrazol citrate (example 191) administered orally at different doses has been determined.

[3] = test system: immobility time in adverse situation; assay: Effect on mobility in adverse situation (mice suspended by their tails, ITEMATIC-TST)
Description: as §1
2.2 Effect on Mobility in Adverse Situation:
The method used was described by R. D. Porsolt and co-workers (Arch. Int. Pharmacodyn., 1987, 288, 11-30). The trial consists of suspending the mice by their tales for six minutes in an ITEMATIC-TST apparatus, which measures the mobility and the strength of the animals' movements. The animals exposed to this adverse situation, after a start with vigorous activity, become desperate and end up staying still.

Q: `CN(C)CCOC(c1ccccc1)c1ccnn1C.O=C(O)CC(O)(CC(=O)O)C(=O)O` (racemic) [Example 191, (±)-5-{α-[2-(dimethylamino)ethoxy]benzyl}-1-methyl-1H-pyrazol citrate] was tested. Which inhibition at 1 µM ([1]; Rattus norvegicus, central, 1 μM, intrathecal, in the perfusion liquid, rats anaesthetised with halothane, read-out: % Inhibition, with respect to control, of intrathecal release of substance P) did it give?
A: Its inhibition at 1 µM is 58%.

Q: And the inhibition at 46 mg/kg ([1]; Rattus norvegicus, central, systematic administration (46 mg/kg), average during the 2 hours, read-out: average inhibition of intrathecal release of substance P)?
A: Its inhibition at 46 mg/kg is 50%.

Q: What about the inhibition at 46 mg/kg ([1]; Rattus norvegicus, 46 mg/kg, ip, rats anaesthetised with halothane, read-out: % Inhibition, with respect to control, of intrathecal release of substance P) of the same molecule?
A: The inhibition at 46 mg/kg was 50%.

Q: What about the “effect on release of substance P” value ([1]; intrathecally in the perfusion liquid, 1 μM) of the same molecule?
A: The value was “inhibited the release of substance P”.

Q: What about the “duration of the effect on the intrathecal release of substance P” value ([1]; systematic administration (46 mg/kg)) of the same molecule?
A: The value was 2 h.

Q: And the “effect on release of substance P” value ([1]; systematic administration of 46 mg/kg)?
A: Its value is “reduced the release of substance P”.

Q: And the inhibition at 12 mg/kg ([2]; Mus musculus, 12 mg/kg, oral (dose as base))?
A: The inhibition at 12 mg/kg was 8%.

Q: What about the inhibition at 23 mg/kg ([2]; Mus musculus, 23 mg/kg, oral (dose as base)) of the same molecule?
A: Its inhibition at 23 mg/kg is 30%.

Q: What about the inhibition at 80 mg/kg ([2]; Mus musculus, 80 mg/kg, oral (dose as base)) of the same molecule?
A: The inhibition at 80 mg/kg was 75%.

Q: And the inhibition at 92 mg/kg ([2]; Mus musculus, 92 mg/kg, oral (dose as base))?
A: Its inhibition at 92 mg/kg is 84%.

Q: What about the “anti-depressive activity, inhibition of the effects of reserpine” value ([2]; oral, different doses) of the same molecule?
A: Its value is “clear anti-depressive activity inhibiting the effects of reserpine with a good dose-response”.

Q: And the SD-50 ([2]; oral, inhibition of ptosis induced by reserpine)?
A: The SD-50 was 38.5 mg/kg, oral.

Q: And the inhibition at 12 mg/kg ([3]; Mus musculus, mice, dose 12 mg/kg, oral)?
A: Its inhibition at 12 mg/kg is 20%.

Q: And the inhibition at 23 mg/kg ([3]; Mus musculus, mice, dose 23 mg/kg, oral)?
A: Its inhibition at 23 mg/kg is 30%.

Q: What about the inhibition at 46 mg/kg ([3]; Mus musculus, mice, dose 46 mg/kg, oral) of the same molecule?
A: Its inhibition at 46 mg/kg is 41%.

Q: What about the inhibition at 92 mg/kg ([3]; Mus musculus, mice, dose 92 mg/kg, oral) of the same molecule?
A: The inhibition at 92 mg/kg was 69%.

Q: What about the “effect on the immobility period” value ([3]; mice suspended by their tails for six minutes) of the same molecule?
A: Its value is “reducing the immobility period significantly and in a dose-dependent fashion”.

Q: And the “DE-50 (inhibition of immobility time in adverse situation)” value ([3]; mice, oral)?
A: Its value is 50.5 mg/kg, oral.
